The values below come from patent EP0971601B1, “DECAFFEINATED MATE EXTRACTS AND THE USE THEREOF” (Sensient Flavors Italy S.R.L., priority 1997, dated 1998).

Experiment [1] concerns rat erythrocytes (RBC). Briefly: UVB-induced lysis of erythrocytes (turbidimetric determination at 710 nm). The class given is cell-based. Conditions: Erythrocyte, light or radiation study, 1.5 h, determined at 90 min irradiation, read-out: IC50, UVB-induced hemolysis. The procedure: • Fig.1 - HPLC profile of the decaffeinated aqueous extract of Maté. Chromatographic conditions: reverse phase column LC-18; mobile phase: linear gradient of 100% A (0.0127 N H3PO4/CH3CN/Ethylacetate 96.5'/3/0.5) to 30% B (CH3CN) in 30 min; flow rate: 1 ml/min; detection: UV-DAD 330 nm. […] Experimental conditions: Finnigan LCQ mass spectrometer; reverse phase column LC-18; mobile phase: linear gradient of 100% A (95% ammonium formiate / 5% CH3CN, pH 4.5 with HCOOH) to 30% B (95% CH3CN / 5% ammonium formiate, pH 4.5 with HCOOH) in 30 min; flow rate: 1 ml/min; negative ion detection. […] Values are the means ± S.D. of 5 determinations. • Fig.10 - Protective effect of decaffeinated aqueous extract of Maté on UVB-induced hemolysis. Red blood cells (0.2% suspensions) were exposed to UVB radiation for 210 min in the absence and in presence of different concentrations of decaffeinated aqueous extract of Maté; percentage hemolysis was turbidimetrically determined at 710 nm at 30 min intervals. Values are the means ± S.D. of 5 determinations.
Finally we evaluated in a cellular model (0.2% erythrocyte suspensions) the protective effect of the decaffeinated aqueous extract of Matè on the peroxidative stress induced by UVB exposure (0.4-4 J/cm^2), and monitoring the time-course of hemolysis (turbidimetric determination at 710 nm) at 30 min intervals.

Experiment [2] in a line: DPPH stable free radical quenching (loss in absorbance at 517 nm). Format: biochemical. Conditions: methanol solution of DPPH, absorbance 517 nm. The text has this: The activity of the extract in quenching the stable free radical DPPH through hydrogen transferring reaction, has been tested by monitoring the loss in absorbance at 517 nm of a methanol solution of DPPH [18] in the presence and the absence of increasing concentrations of Maté extract.
Background: The DPPH test is a chemical assay of radical scavenging.

Converted amounts (≈) assume the structure as drawn.

As usually defined, the IC50 is the concentration needed to halve the response being measured. For the compound `O=C(/C=C/c1ccc(O)c(O)c1)O[C@@H]1C[C@](O)(C(=O)O)C[C@@H](O)[C@H]1O` [Chlorogenic acid, 3-O-caffeoyl quinic acid], the IC50 in experiment [1] amounted to 3.2 µg/mL (≈ 9.03 µM).
Take `O=C1O[C@H]([C@@H](O)CO)C(O)=C1O` [ascorbic acid]: the “IC50, quenching DPPH radical” value in experiment [2] is 19 µg/mL (≈ 108 µM).
In the case of vitamin E, in experiment [2], the “IC50, quenching DPPH radical” value amounted to 19 µg/mL.
